Measurements published in paper PMC9230651, “Discovery of Novel Quinazoline Derivatives as Potent Antitumor Agents” (Molecules, 2022).

How the values were obtained:
GES-1 = assay: MTT assay, toxicity toward normal gastric epithelial cell line GES-1; type: cell-based, human; details: for IC50: MTT, 72 h
Description: (§1) Human gastric carcinoma cell line MGC-803, human breast adenocarcinoma cell line MCF-7, human lung carcinoma cell lines (PC-9, A549, and H1975), and human immortalized gastric mucosa epithelial cell line GES-1 were purchased from the Cell Bank of Shanghai Institute of Biochemistry and Cell Biology (Shanghai, China), and all of them were cultured in RPMI-1640 and DMEM complete medium (Solarbio, Beijing, China) at 37 °C in a 5% CO2 humidified atmosphere.
(§2) Briefly, cells were incubated with different concentrations of the test compound for different hours in each experiment for 72 h, followed by adding 20 μL MTT solution to each well, which was then incubated for another 4 h. An enzyme-linked immunosorbent assay reader (BioTek, South Plainfield, VT, USA) was used to measure absorbance values at 490 nm, and SPSS20 software was used to calculate the cell viability and IC50 values.

PC-9 = assay: MTT assay, antiproliferative activity against PC-9; type: cell-based, human
Description: as §1, §2

MCF-7 = assay: MTT assay, antiproliferative activity against MCF-7; type: cell-based, human
Description: as §1, §2

H1975 = assay: MTT assay, antiproliferative activity against H1975; type: cell-based, human
Description: as §1, §2

[1] = system: xenograft model carrying MGC-803 cells; assay: In vivo anti-tumor activity, gastric cancer xenograft model; parameters: species or system mice
Description: Male mice (23–25 g, aged 5–6 weeks) were obtained from Beijing Vital River Laboratory Animal Technology Co., Ltd. (Beijing, China). All animal treatments were performed under the guidelines of the National Institutes of Health Guide for the Care and Use of Laboratory Animals using an approved animal protocol by the Zhengzhou University Committee on Animal Care (2020CHEM-ZZU-086). 1.0 × 10^7 MGC-803 cells were implanted in the right flank of mice subcutaneously. After 16 days, the tumor volume reached 100 mm^3, followed by being randomly divided into three groups (n = 7): solvent group, 5-Fu (10 mg/kg) group, and compound 18 (25 mg/kg) group. An intravenous injection of 5-Fu (10 mg/kg) was administered into the corresponding mice group every three days, while the mice in compound 18 group received intragastric administration of 25 mg/kg compound 18 per day for 21 days. Tumor diameter and body weight were measured every two days, followed by the euthanization of the mice after 34 days, after which tumor weights were.

MGC-803 = assay: MTT assay, antiproliferative activity against MGC-803; type: cell-based, human
Description: as §1, §2

A549 = assay: MTT assay, antiproliferative activity against A549; type: cell-based, human
Description: as §1, §2

MGC-803 cells [2] = assay: Apoptosis, Annexin V-FITC/PI flow cytometry; type: cell-based, human; details: 1.5 μM, 48 h
Description: Cells were plated in 6-well plates and incubated with 0.37 µM, 0.75 µM, and 1.5 µM compound 18 for 48 h, followed by being harvested and stained by PI and Annexin V according to manufacturer’s protocol. Finally, flow cytometry (BD Bioscience, Franklin Lake, NJ, USA) was applied to detect apoptotic cells.

MGC-803 cells [3] = assay: Western blot of apoptosis-related proteins; type: cell-based, human; details: 0.37, 0.75, 1.5 µM; 48 h
Description: Cells were incubated with 0.37 µM, 0.75 µM, and 1.5 µM compound 18 for 48 h and then collected with trypsin and total proteins and extracted in a lysis buffer. A BCA protein assay kit (Solarbio, Beijing, China) was used to confirm the concentration of the total proteins. These samples were detected by the standard protocol of western blot as described before.

MGC-803 cells [4] = assay: Cell cycle distribution, PI flow cytometry; type: cell-based, human; details: 0.37, 0.75, 1.5 µM; 48 h
Description: MGC-803 cells were seeded into 6-well plates at a concentration of 4 × 10^5 cells per well, followed by being incubated with 0.37 µM, 0.75 µM, and 1.5 µM compound 18 for 48 h, which were subsequently harvested and stained in 500 µL Propidium Iodide solution (PI 1 mg/mL, RNase A 10 mg/mL, Solarbio, Beijing, China) at room temperature without light for 30 min. Finally, flow cytometry (BD Bioscience, Franklin Lake, NJ, USA) was used to detect and analyze staining cells.

MGC-803 cells [5] = assay: Wound healing migration assay; type: cell-based, human; details: 1 µM; 12 h, 24 h, 48 h
Description: For the wound healing assay, MGC-803 cells were seeded into 6-well plates, reaching the density of 90%, followed by being scraped off using a sterile yellow pipette tip and photographed. Subsequently, cells were treated with compound 18 at 1 µM for 12 h, 24 h, and 48 h, respectively, and then photographed again each time.

MGC-803 cells [6] = assay: Transwell migration assay; type: cell-based, human; details: 0.37, 0.75, 1.5 µM; 48 h
Description: For the transwell assay, 600 µL of fresh medium was added to 20% FBS to the substrate of the 24-well plates. Then, 2 × 10^4 MGC-803 cells were seeded into each well, followed by incubation with 0.37 µM, 0.75 µM, and 1.5 µM compound 18 in the upper chambers for 48 h, which was then stained by DAPI solution and photographed.

[7] = system: healthy male and female mice; assay: Acute toxicity assay; type: in vivo; details: 1000 mg/kg intragastric, single dose
Description: The solution of compound 18 was prepared in 80% PEG400 solution. Eight ICR mice (four male/four female, 24–28 g, aged five to six weeks) were obtained from the Beijing Vital River Laboratory Animal Technology Co., Ltd. (Beijing, China). All animal treatments were performed under the guidelines of the National Institutes of Health Guide for the Care and Use of Laboratory Animals using an approved animal protocol by the Zhengzhou University Committee on Animal Care. Male and female mice ([…]) were divided randomly into four groups: a male control group (n = 2), a female control group (n = 2), a male group (n = 2), and a female group (n = 2). All mice were deprived of feed for 12 h. 1 g/kg compound 18 was administered intragastrically in the experiment group of mice, while the mice in the control group received the same volume of vehicle solution on the first day, followed by monitoring abnormal behaviors, body weight, and the death of these mice every day during the following two weeks.

[8] = 10 mg/kg intravenous every three days
[9] = 25 mg/kg intragastric per day for 21 days

Row | IC50 (PC-9; Homo sapiens, PC-9, 72 h) [µM] | IC50 (MCF-7; Homo sapiens, MCF7, 72 h) [µM] | IC50 (H1975; Homo sapiens, NCI-H1975, 72 h) [µM] | IC50 (MGC-803; Homo sapiens, MGC-803, 72 h) [µM] | IC50 (A549; Homo sapiens, A549, 72 h) [µM] | melting point [°C] | Compound | IC50 (GES-1; Homo sapiens, GES1) [µM] | further results
1 | – | – | – | – | – | – | O=c1[nH]cc(F)c(=O)[nH]1 [5-Fu, reference compound] | – | IC50 (GES-1): 3.26 ± 1.07 µM; IC50 (PC-9; 72 h): 3.68 ± 1.06 µM; IC50 (MCF-7; 72 h): 4.51 ± 1.23 µM; IC50 (H1975; 72 h): 2.68 ± 0.86 µM; average tumor volume [1, 8]: decreased the average tumor volume; body weight [1, 8]: did not cause significant changes in body weight; tumor weight [1, 8]: decreased the average tumor volume and tumor weight; IC50 (MGC-803; 72 h): 4.11 ± 0.72 µM; IC50 (A549; 72 h): 5.12 ± 1.73 µM
2 | 15.8 ± 0.52 | 12.6 ± 0.16 | 20.1 ± 1.62 | 6.23 ± 0.12 | 10.3 ± 0.98 | – | c1ccc(Nc2nc(-c3ccccc3)nc3ccccc23)cc1 [compound 6, N,2-Diphenylquinazolin-4-amine] | > 30 | –
3 | 10.6 ± 2.16 | 8.75 ± 1.76 | 12.6 ± 2.89 | 4.15 ± 1.16 | 4.82 ± 0.99 | – | Fc1ccc(Nc2nc(-c3ccccc3)nc3ccccc23)cc1 [compound 7, N-(4-Fluorophenyl)-2-phenylquinazolin-4-amine] | 20.8 ± 3.29 | –
4 | 8.75 ± 1.59 | 6.96 ± 1.57 | 10.6 ± 2.46 | 3.57 ± 0.89 | 6.58 ± 1.31 | – | Clc1ccc(Nc2nc(-c3ccccc3)nc3ccccc23)cc1 [compound 8, N-(4-Chlorophenyl)-2-phenylquinazolin-4-amine] | > 30 | –
5 | 4.31 ± 0.96 | 5.15 ± 1.16 | 6.65 ± 1.57 | 1.89 ± 0.59 | 4.75 ± 1.36 | 187 to 193 | Brc1ccc(Nc2nc(-c3ccccc3)nc3ccccc23)cc1 [compound 9, N-(4-Bromophenyl)-2-phenylquinazolin-4-amine] | 18.6 ± 1.72 | –
6 | 12.5 ± 2.83 | 12.2 ± 1.91 | 25.8 ± 2.2 | 8.32 ± 2.06 | 15.7 ± 1.89 | – | O=[N+]([O-])c1ccc(Nc2nc(-c3ccccc3)nc3ccccc23)cc1 [compound 10, N-(4-Nitrophenyl)-2-phenylquinazolin-4-amine] | > 30 | –
7 | 20.8 ± 2.16 | 15.7 ± 1.82 | 22.9 ± 2.69 | 11 ± 1.93 | 25.4 ± 3.11 | 190 to 195 | FC(F)(F)c1ccc(Nc2nc(-c3ccccc3)nc3ccccc23)cc1 [compound 11, 2-Phenyl-N-(4-(trifluoromethyl)phenyl)quinazolin-4-amine] | 25.4 ± 3.51 | –
8 | 15.3 ± 1.53 | 10.6 ± 1.67 | 19.4 ± 2.38 | 5.81 ± 2.41 | 8.56 ± 1.72 | – | Cc1ccc(Nc2nc(-c3ccccc3)nc3ccccc23)cc1 [compound 12, 2-Phenyl-N-(p-tolyl)quinazolin-4-amine] | 24.3 ± 1.96 | –
9 | 6.83 ± 1.29 | 8.36 ± 1.92 | > 30 | 4.98 ± 1.26 | 5.69 ± 1.68 | – | COc1ccc(Nc2nc(-c3ccccc3)nc3ccccc23)cc1 [compound 13, N-(4-Methoxyphenyl)-2-phenylquinazolin-4-amine] | 21.3 ± 2.79 | –
10 | 5.35 ± 1.82 | 3.21 ± 2.28 | 13.2 ± 1.86 | 2.12 ± 0.97 | 8.72 ± 1.53 | – | COc1cc(Nc2nc(-c3ccccc3)nc3ccccc23)cc(OC)c1OC [compound 14, 2-Phenyl-N-(3,4,5-trimethoxyphenyl)quinazolin-4-amine] | 19.6 ± 2.58 | –
11 | 15.4 ± 1.92 | > 30 | 10.4 ± 1.88 | 18.9 ± 2.82 | 12.2 ± 1.59 | 204 to 208 | c1ccc(-c2nc(Nc3cccc4ccccc34)c3ccccc3n2)cc1 [compound 15, N-(Naphthalen-1-yl)-2-phenylquinazolin-4-amine] | > 30 | –
12 | 2.75 ± 0.66 | 3.96 ± 0.92 | 3.67 ± 0.93 | 2.02 ± 0.38 | 1.98 ± 0.26 | 252 to 256 | O=C(/C=C/c1ccc(F)cc1)c1ccc(Nc2nc(-c3ccccc3)nc3ccccc23)cc1 [compound 16, (E)-3-(4-Fluorophenyl)-1-(4-((2-phenylquinazolin-4-yl)amino)phenyl)prop-2-en-1-one] | 18.8 ± 1.56 | –
13 | 1.89 ± 0.67 | 2.37 ± 0.35 | 4.75 ± 0.81 | 1.39 ± 0.26 | 1.46 ± 0.16 | 263 to 267 | O=C(/C=C/c1ccc(Cl)cc1)c1ccc(Nc2nc(-c3ccccc3)nc3ccccc23)cc1 [compound 17, (E)-3-(4-Chlorophenyl)-1-(4-((2-phenylquinazolin-4-yl)amino)phenyl)prop-2-en-1-one] | 23.4 ± 2.83 | –
14 | 1.39 ± 0.25 | 1.96 ± 0.56 | 2.61 ± 0.59 | 1.56 ± 0.92 | 2.55 ± 0.49 | 281 to 286 | O=C(/C=C/c1ccc2ccccc2c1)c1ccc(Nc2nc(-c3ccccc3)nc3ccccc23)cc1 [compound 19, (E)-3-(Naphthalen-2-yl)-1-(4-((2-phenylquinazolin-4-yl)amino)phenyl)prop-2-en-1-one] | 19.8 ± 2.21 | –

Row | Compound | IC50 (PC-9; Homo sapiens, PC-9, 72 h) [µM] | IC50 (MCF-7; Homo sapiens, MCF7, 72 h) [µM] | IC50 (H1975; Homo sapiens, NCI-H1975, 72 h) [µM] | IC50 (MGC-803; Homo sapiens, MGC-803, 72 h) [µM] | IC50 (A549; Homo sapiens, A549, 72 h) [µM] | melting point [°C] | IC50 (GES-1; Homo sapiens, GES1) [µM] | further results
15 | O=C(/C=C/c1ccc(Br)cc1)c1ccc(Nc2nc(-c3ccccc3)nc3ccccc23)cc1 [compound 18, (E)-3-(4-Bromophenyl)-1-(4-((2-phenylquinazolin-4-yl)amino)phenyl)prop-2-en-1-one] | 1.26 ± 0.18 | 1.61 ± 0.2 | 2.12 ± 0.52 | 0.85 ± 0.14 | 1.54 ± 0.38 | – | 26.8 ± 1.85 | selectivity MGC-803 against GES-1 (GES-1; IC50 GES-1 / IC50 MGC-803): ~32 fold; apoptotic percentage (late and early apoptosis) (MGC-803 cells [2]): 70.9%; expression of Bax (MGC-803 cells [3]): up-regulating; expression of Bcl-2 (MGC-803 cells [3]): remarkably decreased; expression of Mcl-1 (MGC-803 cells [3]): remarkably decreased; expression of cleaved PARP (MGC-803 cells [3]): dose-dependently induced the up-regulation; effect on cell cycle (MGC-803 cells [4]): significantly induced cell cycle arrest at G2/M; effect on migration of MGC-803 cells, wound healing assay (MGC-803 cells [5]): effectively inhibit the migration of MGC-803 cells dose-dependently; average tumor volume [1, 9]: decreased the average tumor volume; body weight [1, 9]: did not cause significant changes in body weight; tumor weight [1, 9]: decreased the average tumor volume and tumor weight; effect on migration of MGC-803 cells, transwell assay (MGC-803 cells [6]): effectively inhibit the migration of MGC-803 cells dose-dependently; pathological damage of brain, heart, liver, spleen, lung, kidney (HE staining) [7]: no marked pathological damage
